The source of these data is patent US20220348590A1, “CYCLOOXYGENASE-2 INHIBITORS AND USES THEREOF” (The Board Institute, Inc., priority 2019, published 2022).

The structures appear in SMILES notation. Where two headings read alike, the source gives them in different places.

This assay addresses T1, human recombinant COX2 (hCOX2) (UniProt P35354).
T1 sequence (P35354 1-604): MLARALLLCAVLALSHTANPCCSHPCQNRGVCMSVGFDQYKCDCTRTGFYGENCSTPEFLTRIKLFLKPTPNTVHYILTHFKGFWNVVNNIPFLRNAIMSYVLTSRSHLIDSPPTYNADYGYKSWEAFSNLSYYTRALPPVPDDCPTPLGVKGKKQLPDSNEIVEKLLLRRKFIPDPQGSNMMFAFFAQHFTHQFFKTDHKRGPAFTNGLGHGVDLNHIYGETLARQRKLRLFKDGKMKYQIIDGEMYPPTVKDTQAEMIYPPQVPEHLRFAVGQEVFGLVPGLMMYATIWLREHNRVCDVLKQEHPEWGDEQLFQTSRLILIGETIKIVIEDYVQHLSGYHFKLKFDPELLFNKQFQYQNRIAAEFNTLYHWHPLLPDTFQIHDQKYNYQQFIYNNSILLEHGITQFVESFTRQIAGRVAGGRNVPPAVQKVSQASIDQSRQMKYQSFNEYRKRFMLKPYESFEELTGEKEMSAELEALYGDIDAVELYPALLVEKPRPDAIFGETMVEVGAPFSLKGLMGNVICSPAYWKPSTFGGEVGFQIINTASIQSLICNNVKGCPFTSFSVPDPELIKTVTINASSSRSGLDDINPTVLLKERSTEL
The experiment in a line: LCMS-based COX2 enzymatic inhibition assay (PGE2 quantification). More on the design: COX2 2 minutes pge2/pge2d4 area ratio Avg; other: 2 minutes; readout pge2/pge2d4 area ratio; average; COX2 2 minutes pge2/pge2d4 area ratio Avg; LLE; average LLE; COX2 2 minutes pge2 area (counts) Avg; readout pge2 area (counts); other: 2 min; "ovine COX2 (oCOX2), human recombinant COX2 (hCOX2)". The class given is biochemical. As to conditions: for COX2 2 minutes pge2/pge2d4 area ratio Avg. LLE / COX2 2 minutes pge2 area (counts) Avg. LLE / COX2 10 minutes pge2 area (counts) Avg. LLE: average LLE; for IC50: average. A digest of the protocol:
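Ovine COX-1 (0.1 μg) or human recombinant COX2 (0.2 μg) in 100 mM Tris.HCl pH 8.0 with hematin and epinephrine, preincubated with inhibitor 10 min at 37 °C. Reaction with 5 μM arachidonic acid stopped after 2 min with HCl; PGE2 quantified by LC-MS-MS. IC50 from 12 concentrations in triplicate.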

Setting [1] is: 2 minutes, readout pge2/pge2d4 area ratio.
[2] abbreviates: 2 minutes, readout pge2/pge2d4 area ratio, read-out: COX2 2 minutes pge2/pge2d4 area ratio Avg. IC50.
Setting [3] is: 2 minutes, readout pge2 area (counts).
[4] abbreviates: 2 minutes, readout pge2 area (counts), read-out: COX2 2 minutes pge2 area (counts) Avg. IC50.
[5] abbreviates: 10 minutes, readout pge2 area (counts).
[6] abbreviates: 10 minutes, readout pge2 area (counts), read-out: COX2 10 minutes pge2 area (counts) Avg. IC50.

Turning to `CS(=O)(=O)c1ccc(-c2cncc(OCc3nccs3)n2)cc1` [Compound 147], the “COX2 2 minutes pge2/pge2d4 area ratio Avg. LLE” value under setting [1] turned out to be 4.543. In addition, the IC50 is 250 nM under setting [2] and 113 nM under setting [4]. In addition, the “COX2 2 minutes pge2 area (counts) Avg. LLE” value (“COX2 2 minutes pge2 area” below) under setting [3] turned out to be 4.9085.
In the same order, the values of `CS(=O)(=O)c1ccc(-c2cncc(SCc3ccon3)n2)cc1` [Compound 148] are 5.484, 268 nM, 255 nM and 5.518.
Turning to `COc1ccc(NCc2ccco2)nc1-c1ccc(S(C)(=O)=O)cc1` [Compound 149], the “COX2 2 minutes pge2/pge2d4 area ratio Avg. LLE” value under setting [1] stood at 4.057. For the same compound, the IC50 is, setting by setting: under setting [2], 272 nM; under setting [4], 285 nM. Under setting [3], the “COX2 2 minutes pge2 area” value amounted to 4.033.
Taken in the same sequence, the figures for `CS(=O)(=O)c1ccc(-c2cccc(NCc3ccon3)n2)cc1` [Compound 150] were 5.05, 276 nM, 249 nM and 5.0953.
For `CS(=O)(=O)c1ccc(-n2ccc3ccc(C(=O)c4cccs4)nc32)cc1` [Compound 151, [1-(4-methylsulfonylphenyl)pyrrolo[2,3-b]pyridin-6-yl]-(2-thienyl)methanone], the IC50 under setting [2] was 293 nM and the IC50 under setting [4] is 233 nM.
Consider `COc1ncc(NCc2ccon2)nc1-c1ccc(S(C)(=O)=O)cc1` [Compound 152], for which the “COX2 2 minutes pge2/pge2d4 area ratio Avg. LLE” value under setting [1] came out at 6.031. In addition, the IC50 amounted to 297 nM under setting [2] and 174 nM under setting [4]. The “COX2 2 minutes pge2 area” value under setting [3] is given as 6.197.
Consider `CS(=O)(=O)c1ccc(-c2cncc(OCc3ccns3)n2)cc1` [Compound 153], for which the “COX2 2 minutes pge2/pge2d4 area ratio Avg. LLE” value under setting [1] is listed as 5.153. Also, the IC50 under setting [2] worked out at 304 nM and the IC50 under setting [4] worked out at 195 nM. The “COX2 2 minutes pge2 area” value under setting [3] is 5.323.
Taken in the same sequence, the figures for `CS(=O)(=O)c1ccc(-c2ccc3ncn(Cc4cccs4)c3n2)cc1` [Compound 155] were 2.321, 320 nM, 317 nM and 2.324.
Regarding `COc1nc(NCc2cccs2)cc(-c2ccc(S(C)(=O)=O)cc2)n1` [Compound 156], under setting [1], the “COX2 2 minutes pge2/pge2d4 area ratio Avg. LLE” value came to 3.208. Further, the IC50 is 332 nM under setting [2], 327 nM under setting [4] and 35.5 nM under setting [6]. Further, the “COX2 2 minutes pge2 area” value under setting [3] is reported as 3.204. Under setting [5], the “COX2 10 minutes pge2 area (counts) Avg. LLE” value (shortened to “COX2 10 minutes pge2 area”) was 4.189.
For the compound `C[S+]([O-])c1ccc(-c2cccc(OCc3cccs3)n2)cc1` (stereo not drawn) [Compound 157], under setting [1], the “COX2 2 minutes pge2/pge2d4 area ratio Avg. LLE” value is recorded as 3.382. Further, the IC50 is, setting by setting: under setting [2], 350 nM; under setting [4], 428 nM. Also, the “COX2 2 minutes pge2 area” value under setting [3] is listed as 3.281.
`COc1ccc(-c2ccc(S(C)(=O)=O)nc2)nc1NCc1cccs1` [Compound 158]: the “COX2 2 minutes pge2/pge2d4 area ratio Avg. LLE” value under setting [1] turned out to be 3.956. In addition, the IC50 came out at 359 nM under setting [2] and 349 nM under setting [4]. In addition, the “COX2 2 minutes pge2 area” value under setting [3] is listed as 3.972.
As to `CS(=O)(=O)c1ccc(-c2nc(NCc3cccs3)cnc2C#N)cc1` [Compound 159], the “COX2 2 minutes pge2/pge2d4 area ratio Avg. LLE” value under setting [1] is 4.781. In addition, the IC50 is, setting by setting: under setting [2], 361 nM; under setting [4], 381 nM. Besides, under setting [3], the “COX2 2 minutes pge2 area” value was found to be 4.751.
For the compound `COc1ccc(-c2ccc(S(C)(=O)=O)cc2)nc1NCc1cccs1` [Compound 160], the “COX2 2 minutes pge2/pge2d4 area ratio Avg. LLE” value under setting [1] was found to be 3.162. In addition, the IC50 reads like this: under setting [2], 385 nM; under setting [4], 361 nM. Moreover, under setting [3], the “COX2 2 minutes pge2 area” value worked out at 3.174.
Regarding `CS(=O)(=O)c1ccc(-c2cncc(NCc3ccco3)c2)cc1` [Compound 161], the IC50 by setting is: under setting [2], 388 nM; under setting [4], 337 nM.
`COc1ncc(NCc2cncs2)nc1-c1ccc(S(C)(=O)=O)cc1` [Compound 163]: under setting [1], the “COX2 2 minutes pge2/pge2d4 area ratio Avg. LLE” value was 4.491. In addition, the IC50 by setting is: under setting [2], 409 nM; under setting [4], 319 nM. Under setting [3], the “COX2 2 minutes pge2 area” value is 4.597.
For the compound `CS(=O)(=O)c1ccc(-c2ncc3ncn(Cc4cccs4)c3n2)cc1` [Compound 164], the “COX2 2 minutes pge2/pge2d4 area ratio Avg. LLE” value under setting [1] was 2.595. Besides, the IC50 under setting [2] worked out at 411 nM, the IC50 under setting [4] came out at 368 nM and the IC50 under setting [6] was 50.3 nM. Moreover, the “COX2 2 minutes pge2 area” value under setting [3] was 2.638. The “COX2 10 minutes pge2 area” value under setting [5] is recorded as 3.534.
Turning to `CS(=O)(=O)c1ccc(-c2cnc(N)c(NCc3cccs3)n2)cc1` [Compound 165], the “COX2 2 minutes pge2/pge2d4 area ratio Avg. LLE” value under setting [1] is recorded as 4.592. For the same compound, the IC50 runs as follows: under setting [2], 425 nM; under setting [4], 391 nM. Further, the “COX2 2 minutes pge2 area” value under setting [3] was 4.629.
As for `COc1ncc(NCc2cccnc2)nc1-c1ccc(S(C)(=O)=O)cc1` [Compound 166], under setting [1], the “COX2 2 minutes pge2/pge2d4 area ratio Avg. LLE” value worked out at 5.259. Moreover, the IC50 runs as follows: under setting [2], 427 nM; under setting [4], 380 nM. Moreover, the “COX2 2 minutes pge2 area” value under setting [3] is on record as 5.249.
Regarding `CS(=O)(=O)c1ccc(-c2cnc(C#N)c(NCc3cccs3)n2)cc1` [Compound 169], the IC50 by setting is: under setting [2], 442 nM; under setting [4], 294 nM; under setting [6], 59.1 nM.
Consider `CS(=O)(=O)c1ccc(-c2nncc(NCc3cccs3)n2)cc1` [Compound 171], for which the “COX2 2 minutes pge2/pge2d4 area ratio Avg. LLE” value under setting [1] came to 4.364. Moreover, the IC50 was 447 nM under setting [2] and 452 nM under setting [4]. Further, the “COX2 2 minutes pge2 area” value under setting [3] is 4.345.
Taken in the same sequence, the figures for `CS(=O)(=O)c1ccc(-c2cncc(OCc3ccccc3)n2)cc1` [Compound 172] were 4.174, 447 nM, 520 nM and 4.01.
With `C[C@@H](Nc1cncc(-c2ccc(S(C)(=O)=O)cc2)n1)c1cccs1` [Compound 173], the “COX2 2 minutes pge2/pge2d4 area ratio Avg. LLE” value under setting [1] is 3.7158. In addition, the IC50 is 452 nM under setting [2], 326 nM under setting [4] and 38.4 nM under setting [6]. Besides, the “COX2 2 minutes pge2 area” value under setting [3] is 3.9817. Also, the “COX2 10 minutes pge2 area” value under setting [5] turned out to be 4.808.
For the compound `CS(=O)(=O)c1ccc(-c2cncc(NCc3ccoc3)c2)cc1` [Compound 174], the IC50 is, setting by setting: under setting [2], 484 nM; under setting [4], 481 nM.
With `CS(=O)(=O)c1ccc(-c2cccc(NCc3ccno3)n2)cc1` [Compound 175], the “COX2 2 minutes pge2/pge2d4 area ratio Avg. LLE” value under setting [1] is listed as 4.7843. In addition, the IC50 under setting [2] came to 508 nM and the IC50 under setting [4] was found to be 638 nM. Moreover, the “COX2 2 minutes pge2 area” value under setting [3] is given as 4.685.
`CS(=O)(=O)c1ccc(-c2cnc3ccn(Cc4nccs4)c3n2)cc1` [Compound 176]: under setting [1], the “COX2 2 minutes pge2/pge2d4 area ratio Avg. LLE” value stood at 3.19. For the same compound, the IC50 was 532 nM under setting [2] and 520 nM under setting [4]. In addition, the “COX2 2 minutes pge2 area” value under setting [3] was 3.2105.
Regarding `CC(C)CNc1cncc(-c2ccc(S(C)(=O)=O)cc2)n1` [Compound 178], the “COX2 2 minutes pge2/pge2d4 area ratio Avg. LLE” value under setting [1] is listed as 4.69. Moreover, the IC50 stood at 544 nM under setting [2], 608 nM under setting [4] and 119 nM under setting [6]. Besides, under setting [3], the “COX2 2 minutes pge2 area” value is 4.636. Besides, the “COX2 10 minutes pge2 area” value under setting [5] worked out at 5.429.
